In data set [1] the target is T1, Adenosine receptor A1 (Homo sapiens, UniProt P30542).
T1 sequence (P30542 whole entry): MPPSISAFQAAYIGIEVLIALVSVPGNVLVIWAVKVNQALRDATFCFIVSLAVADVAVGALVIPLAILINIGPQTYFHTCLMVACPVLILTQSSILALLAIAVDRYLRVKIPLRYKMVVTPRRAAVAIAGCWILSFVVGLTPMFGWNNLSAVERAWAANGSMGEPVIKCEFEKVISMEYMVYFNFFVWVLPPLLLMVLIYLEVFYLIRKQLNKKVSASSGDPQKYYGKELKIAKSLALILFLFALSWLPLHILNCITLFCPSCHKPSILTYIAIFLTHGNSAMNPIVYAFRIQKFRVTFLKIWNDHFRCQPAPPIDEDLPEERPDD
Nature of the data set: Agonist activity at human A1AR expressed in FlpIn-CHO cells assessed as inhibition of forskolin-stimulated cAMP accumulation preincubated for 10 mins followed by forskolin addition measured after 30 mins by Alphascreen assay. The format is functional, cell-based.

The target of data set [2] is T1, Adenosine receptor A1. Nature of the data set: Agonist activity at human A1AR expressed in FlpIn-CHO cells assessed as intracellular calcium mobilization by Fluo-4 dye-based fluorescence assay. It is filed as cell-based.
The target of data set [3] is T1, Adenosine receptor A1. Kind of data set: Agonist activity at human A1AR expressed in FlpIn-CHO cells assessed as intracellular calcium mobilization by Fluo-4 dye-based fluorescence assay relative to control. It is filed as cell-based.
Data set [4] deals with T1, Adenosine receptor A1. Kind of data set: Agonist activity at human A1AR expressed in FlpIn-CHO cells assessed as intracellular calcium mobilization by measuring agonist transduction coefficient by Fluo-4 dye-based fluorescence assay. It is filed as cell-based.
The next data set addresses Adenosine receptor A2a (Homo sapiens, UniProt P29274). Nature of the data set: Agonist activity at human A2A-AR expressed in FlpIn-CHO cells assessed as inhibition of forskolin-stimulated cAMP accumulation preincubated for 40 mins followed by forskolin addition measured after 30 mins by Alphascreen assay.
A further data set addresses T2, Adenosine receptor A2b (Homo sapiens, UniProt P29275).
T2 sequence (P29275 whole entry): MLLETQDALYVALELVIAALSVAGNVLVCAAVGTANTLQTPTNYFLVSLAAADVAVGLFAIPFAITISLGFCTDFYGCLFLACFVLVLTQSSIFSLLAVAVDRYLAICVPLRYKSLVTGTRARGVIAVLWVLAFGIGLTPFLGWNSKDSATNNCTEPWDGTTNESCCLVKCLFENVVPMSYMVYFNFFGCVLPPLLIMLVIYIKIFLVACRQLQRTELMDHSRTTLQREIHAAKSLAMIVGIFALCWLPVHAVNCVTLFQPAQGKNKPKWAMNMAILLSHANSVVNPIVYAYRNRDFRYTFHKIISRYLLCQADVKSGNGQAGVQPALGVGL
Kind of data set: Agonist activity at human A2BAR expressed in FlpIn-CHO cells assessed as […] cAMP accumulation preincubated for 40 mins followed by forskolin addition measured after 30 mins by Alphascreen assay. The format is functional, cell-based.

The target in data set [5] is T3, Adenosine receptor A2b (Homo sapiens) (UniProt P29275).
T3 sequence (whole entry): T2 sequence (P29275 whole entry)
Nature of the data set: Agonist activity at human A2BAR expressed in FlpIn-CHO cells assessed as […] cAMP accumulation preincubated for 40 mins followed by forskolin addition measured after 30 mins by Alphascreen assay relative to control. It is filed as functional, cell-based.

The target of data set [6] is T4, Adenosine receptor A3 (Homo sapiens) (UniProt P0DMS8).
T4 sequence (whole entry): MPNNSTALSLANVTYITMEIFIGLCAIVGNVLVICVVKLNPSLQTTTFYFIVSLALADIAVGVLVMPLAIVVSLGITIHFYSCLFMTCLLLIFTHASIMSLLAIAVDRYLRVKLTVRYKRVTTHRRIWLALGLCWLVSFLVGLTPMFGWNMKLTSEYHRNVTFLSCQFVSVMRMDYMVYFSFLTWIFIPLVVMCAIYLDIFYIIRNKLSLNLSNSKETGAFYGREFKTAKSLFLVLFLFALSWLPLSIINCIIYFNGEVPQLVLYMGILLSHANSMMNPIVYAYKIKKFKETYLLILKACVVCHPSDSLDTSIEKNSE
Nature of the data set: Agonist activity at human A3AR expressed in FlpIn-CHO cells assessed as inhibition of forskolin-stimulated cAMP accumulation up to 10 uM preincubated for 10 mins followed by forskolin addition measured after 30 mins by Alphascreen assay. It is filed as functional, cell-based.

Each structure is given as a SMILES string. Calls of active or inactive are those of the source. The rule behind the calls is not given here.

Chain of Adenosine receptor A2a (P29274 whole entry): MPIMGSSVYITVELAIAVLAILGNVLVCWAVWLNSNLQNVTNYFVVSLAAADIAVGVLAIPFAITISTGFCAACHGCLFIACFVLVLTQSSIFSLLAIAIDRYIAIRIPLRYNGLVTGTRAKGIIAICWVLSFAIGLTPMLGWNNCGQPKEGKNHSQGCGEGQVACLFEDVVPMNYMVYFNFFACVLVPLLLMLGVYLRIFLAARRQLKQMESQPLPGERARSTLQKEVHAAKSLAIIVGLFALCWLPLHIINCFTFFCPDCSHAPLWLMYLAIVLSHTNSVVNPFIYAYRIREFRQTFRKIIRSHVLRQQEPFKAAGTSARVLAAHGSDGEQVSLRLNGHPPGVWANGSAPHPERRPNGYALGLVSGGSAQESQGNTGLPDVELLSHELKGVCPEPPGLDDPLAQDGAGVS

On to `Nc1nc(NCCCCCCNC(=O)c2ccc(-c3sc(N)c(C(=O)c4ccccc4)c3-c3cccc(C(F)(F)F)c3)cc2)c2ncn([C@@H]3O[C@H](CO)[C@@H](O)[C@H]3O)c2n1`, for which the EC50 at Adenosine receptor A1 [1] was 1350 nM; on Adenosine receptor A1 [2], 257 nM; at Adenosine receptor A2a, 759 nM; at Adenosine receptor A2b, 97.7 nM. Besides, the Emax was determined as 34% at Adenosine receptor A1 [3] and 43% in data set [5]. In addition, at Adenosine receptor A1 [4], the “log(activity)” value was found to be 6.15. Besides, the inhibition result in data set [6] is “inactive”.

These data come from ChEMBL document CHEMBL4043287, “A Structure-Activity Relationship Study of Bitopic N6-Substituted Adenosine Derivatives as Biased Adenosine A1 Receptor Agonists” (J Med Chem, 2018).
